# From PMC8781238 (European journal of medicinal chemistry, 2020)
# Entries after “also recorded” stand apart in the source; their conditions may differ.
# Columns and labels:
# SphK1 = conditions: read-out: SphK1 IC50; cited from earlier work
# [1] = test system: U-251 MG human glioblastoma cells; assay: In vitro cell viability assay; format: cell-based; conditions: 125 µM, 24 hours incubation; for Antitumor activity on U-251 MG cell viability (in words): compared with compound 7 (ABC294640)
# SphK2 = conditions: cited from earlier work
# recombinant human SphK2 = biological target: T1, recombinant human SphK2 (Homo sapiens, UniProt Q9NRA0); assay: ADP-Glo kinase assay, SphK2; conditions: comparison of SphK1 and SphK2 activity at 125 µM compound (Fig. 5)
# T1 sequence (Q9NRA0 1-654): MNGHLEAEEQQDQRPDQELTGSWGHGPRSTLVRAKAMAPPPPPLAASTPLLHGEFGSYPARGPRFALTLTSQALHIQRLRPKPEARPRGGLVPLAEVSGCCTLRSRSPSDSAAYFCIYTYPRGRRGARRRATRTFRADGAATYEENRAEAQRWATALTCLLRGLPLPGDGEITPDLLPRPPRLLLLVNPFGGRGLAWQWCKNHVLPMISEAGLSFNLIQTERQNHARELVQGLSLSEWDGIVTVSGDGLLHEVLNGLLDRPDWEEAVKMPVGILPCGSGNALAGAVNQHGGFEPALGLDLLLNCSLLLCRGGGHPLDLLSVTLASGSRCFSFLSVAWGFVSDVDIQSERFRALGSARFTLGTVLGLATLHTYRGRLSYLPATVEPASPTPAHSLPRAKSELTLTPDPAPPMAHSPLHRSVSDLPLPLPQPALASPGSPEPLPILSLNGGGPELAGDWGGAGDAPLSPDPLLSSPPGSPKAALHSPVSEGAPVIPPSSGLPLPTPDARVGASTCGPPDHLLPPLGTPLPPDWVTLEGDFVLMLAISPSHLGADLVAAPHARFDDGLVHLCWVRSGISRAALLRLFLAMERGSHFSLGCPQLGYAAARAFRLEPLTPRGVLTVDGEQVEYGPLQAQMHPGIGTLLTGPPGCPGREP
Compound,Antitumor activity on U-251 MG cell viability (in words) [1],Selectivity/specificity for SphK2 over SphK1 (in words) (recombinant human SphK2),also measured
O=C(NCc1ccncc1)C12CC3CC(C1)CC(c1ccc(Cl)cc1)(C3)C2 [Compound 7],–,–,IC50 (SphK1): ≥ 100 µM; Reduction of cell viability of U-251 MG cells [1]: approximately 50%; IC50 (SphK2; read-out: SphK2 IC50): ~60 µM
N=C(N)N1CCC[C@H]1Cc1nc(-c2ccc(Nc3nc(-c4cccc(C(F)(F)F)c4)cs3)cc2)no1 [Compound 13],–,–,Ki (SphK2; read-out: SphK2 Ki): 0.09 µM
"Cl.N=C(N)N1CCC[C@H]1Cc1nc(-c2ccc(Cn3cc(-c4ccccc4)nn3)cc2)no1 [Compound 21a, (S)-2-((3-(4-((4-Phenyl-1H-1,2,3-triazol-1-yl)methyl)phenyl)-1,2,4-oxadiazol-5yl)methyl)pyrrolidine-1-carboximidamide hydrochloride]",highest anti-tumor activity; also recorded: strongest antitumor activity,–,–
"Cl.N=C(N)N1CCC[C@H]1Cc1nc(-c2ccc(Cn3cc(-c4ccc(C(F)(F)F)cc4)nn3)cc2)no1 [Compound 21b, (S)-2-((3-(4-((4-(4-(Trifluoromethyl)phenyl)-1H-1,2,3-triazol-1-yl)methyl)phenyl)-1,2,4-oxadiazol-5-yl)methyl)-pyrrolidine-1-carboximidamide hydrochloride]",highest anti-tumor activity; also recorded: strongest antitumor activity,lowest specificity; also recorded: no selective,–
"Cl.N=C(N)N1CCC[C@H]1Cc1nc(-c2ccc(Cn3cc(-c4ccccn4)nn3)cc2)no1 [Compound 21c, (S)-2-((3-(4-((4-(Pyridin-2-yl)-1H-1,2,3-triazol-1-yl)methyl)phenyl)-1,2,4-oxadiazol-5-yl)methyl)pyrrolidine-1-carboximidamide hydrochloride]",–,high selectivity; also recorded: highest specificity,–
"CCCCc1cn(Cc2ccc(-c3noc(C[C@@H]4CCCN4C(=N)N)n3)cc2)nn1.Cl [Compound 21d, (S)-2-((3-(4-((4-Butyl-1H-1,2,3-triazol-1-yl)methyl)phenyl)-1,2,4-oxadiazol-5-yl)methyl)pyrrolidine-1-carboximidamide hydrochloride]",–,lowest specificity; also recorded: no selective,–
"COc1ccc(-c2cn(Cc3ccc(-c4noc(C[C@@H]5CCCN5C(=N)N)n4)cc3)nn2)cc1.Cl [Compound 21e, (S)-2-((3-(4-((4-(4-Methoxyphenyl)-1H-1,2,3-triazol-1-yl)methyl)phenyl)-1,2,4-oxadiazol-5-yl)methyl)pyrrolidine-1-carboximidamide hydrochloride]",comparable reduction of viability,high selectivity; also recorded: highest specificity,–
"Cl.N=C(N)N1CCC[C@H]1Cc1nc(-c2ccc(Cn3cc(C4CC4)nn3)cc2)no1 [Compound 21f, (S)-2-((3-(4-((4-Cyclopropyl-1H-1,2,3-triazol-1-yl)methyl)phenyl)-1,2,4-oxadiazol-5-yl)methyl)pyrrolidine-1-carboximidamide hydrochloride]",–,lowest specificity; also recorded: no selective,–
"Cl.Cn1cc(-c2cn(Cc3ccc(-c4noc(C[C@@H]5CCCN5C(=N)N)n4)cc3)nn2)cn1 [Compound 21g, (S)-2-((3-(4-((4-(1-Methyl-1H-pyrazol-4-yl)-1H-1,2,3-triazol-1-yl)methyl)phenyl)-1,2,4-oxadiazol-5-yl)methyl)pyrrolidine-1-carboximidamide hydrochloride]",–,high selectivity; also recorded: highest specificity,–
Cl.N=C(N)N1CCC[C@H]1c1nc(-c2ccc(Cn3cc(-c4ccc(C(F)(F)F)cc4)nn3)cc2)no1 [Compound 25b],highest anti-tumor activity; also recorded: tremendously decrease the viability; also recorded: strongest antitumor activity; also recorded: higher antitumor activity,–,–
"Cl.N=C(N)N1CCC[C@H]1c1nc(-c2ccc(Cn3cc(-c4ccccn4)nn3)cc2)no1 [Compound 25c, (S)-2-(3-(4-((4-(Pyridin-2-yl)-1H-1,2,3-triazol-1-yl)methyl)phenyl)-1,2,4-oxadiazol-5-yl)pyrrolidine-1-carboximidamide hydrochloride]",–,lowest specificity,–
COc1ccc(-c2cn(Cc3ccc(-c4noc([C@@H]5CCCN5C(=N)N)n4)cc3)nn2)cc1.Cl [Compound 25d],comparable reduction of viability,–,–
CCCCc1cn(Cc2ccc(-c3noc([C@@H]4CCCN4C(=N)N)n3)cc2)nn1.Cl [Compound 25f],–,high selective,–
Cl.N=C(N)N1CCC[C@H]1c1nc(-c2ccc(Cn3cc(C4CC4)nn3)cc2)no1 [Compound 25h],–,high selective,–
"Cl.N=C(N)C1(c2nc(-c3ccc(Cn4cc(-c5ccccc5)nn4)cc3)no2)CC1 [Compound 29a, 1-(3-(4-((4-Phenyl-1H-1,2,3-triazol-1-yl)methyl)phenyl)-1,2,4-oxadiazol-5-yl)cyclopropanecarboximidamide hydrochloride]",–,highly selective,–
Cl.Cn1cc(-c2cn(Cc3ccc(-c4noc(C5(C(=N)N)CC5)n4)cc3)nn2)cn1 [Compound 29b],–,highly selective,–
